Values quoted from earlier work in patent EP4219603A1, “A METHOD FOR PURIFICATION OF ORGANIC WATER-SOLUBLE POLYMERS FROM HYDROPHOBIC CONTAMINANTS” (Ustav experimentálnej fyziky SAV, v.v.i., priority 2022, dated 2023).
Like-named read-outs stand apart in the source and are kept apart here.

Conditions: logarithm of the octanol/water partition coefficient
[1] = contaminants from Examples 1 to 9 identified in GC-MS HS-SPME elugrams
[2] = model contaminants added to the polymer

Row | Compound | log P [1] | log P [2]
1 | CCCCCCCCCCCC [dodecane] | 7.13 | –
2 | CC(C)COC(=O)c1ccccc1C(=O)OCC(C)C [di-isobutyl phtalate] | 4.46 | –
3 | CCCCCCCCCCCCC [tridecane] | 7.66 | –
4 | Clc1cc(Cl)cc(-c2ccccc2)c1 [dichlorobiphenyl (PCB 14)] | 5.41 | 5.41
5 | CC(C)c1ccc2c(c1)CC[C@H]1[C@](C)(CO)CCC[C@]21C [dehydroabietol] | 6.35 | –
6 | CCCCCCCCCCCCCCCCCC [octadecane] | 10.32 | 10.32
7 | CCCCCCCCCCCCCC [tetradecane] | 8.19 | –
8 | CCCCCCCCCCCCCCCC [hexadecane] | 9.26 | –
9 | c1ccc(-c2ccccc2)cc1 [bifenyl] | 4.00 | –
10 | C[C@]12CC[C@H]3C(=CCc4cc(OC(=O)c5ccccc5)ccc43)[C@@H]1CCC2=O [equilin benzoate] | 5.63 | –

The remaining lines, values ahead:

Row | log P [1] | log P [2] | Compound
11 | 6.37 | – | CCCCCCCCCCCC(=O)OC(C)C [isopropyl dodecanoate]
12 | 5.73 | – | CCCCC(CC)COC(=O)c1ccccc1 (stereo not drawn) [2-ethylhexyl benzoate]
13 | 5.16 | – | CCCCCCCCCCCC(C)=O [2-tridecanone]
14 | 7.43 | – | CCCCCCCCCCCCCC(=O)OC(C)C [isopropyl tetradecanoate]
15 | 6.00 | 6.00 | CCCCCCCCCCCC(=O)OCC [ethyl dodecanoate]
